Test results from PubChem BioAssay (NCI).
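1) Cells in 96-well plates. 2) Compound, 48 h, 5 concentrations. 3) Linear interpolation between surrounding doses. 4) Unreached endpoint = highest concentration. GI50: concentration for 50% inhibition of growth. TGI: total growth inhibition.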

Columns and labels:
Assay in all cases: DTP human tumour cell line panel, 48 h
786-0 renal = tested on: 786-0 renal
A498 renal = tested on: A498 renal
A549 NSCLC = tested on: A549 NSCLC
ACHN renal = tested on: ACHN renal
BT-549 breast = tested on: BT-549 breast
CAKI-1 renal = tested on: CAKI-1 renal
CCRF-CEM leukemia = tested on: CCRF-CEM leukemia
COLO 205 colon = tested on: COLO 205 colon
DU-145 prostate = tested on: DU-145 prostate
HCC-2998 colon = tested on: HCC-2998 colon
HCT-116 colon = tested on: HCT-116 colon
HCT-15 colon = tested on: HCT-15 colon
HL-60(TB) leukemia = tested on: HL-60(TB) leukemia
HOP-62 NSCLC = tested on: HOP-62 NSCLC
HOP-92 NSCLC = tested on: HOP-92 NSCLC
HS 578T breast = tested on: HS 578T breast
HT29 colon = tested on: HT29 colon
IGROV1 ovarian = tested on: IGROV1 ovarian
K-562 leukemia = tested on: K-562 leukemia
KM12 colon = tested on: KM12 colon
LOX IMVI melanoma = tested on: LOX IMVI melanoma
M14 melanoma = tested on: M14 melanoma
MALME-3M melanoma = tested on: MALME-3M melanoma
MCF7 breast = tested on: MCF7 breast
MDA-MB-231 breast = tested on: MDA-MB-231 breast
MDA-MB-435 = tested on: MDA-MB-435
MOLT-4 leukemia = tested on: MOLT-4 leukemia
NCI-H226 lung = tested on: NCI-H226 lung
NCI-H23 lung = tested on: NCI-H23 lung
NCI-H460 lung = tested on: NCI-H460 lung
NCI-H522 lung = tested on: NCI-H522 lung
NCI/ADR-RES ovarian = tested on: NCI/ADR-RES ovarian
OVCAR-3 ovarian = tested on: OVCAR-3 ovarian
OVCAR-4 ovarian = tested on: OVCAR-4 ovarian
OVCAR-5 ovarian = tested on: OVCAR-5 ovarian
OVCAR-8 ovarian = tested on: OVCAR-8 ovarian
PC-3 prostate = tested on: PC-3 prostate
RPMI-8226 leukemia = tested on: RPMI-8226 leukemia
RXF 393 renal = tested on: RXF 393 renal
SF-268 CNS = tested on: SF-268 CNS
SF-295 CNS = tested on: SF-295 CNS
SF-539 CNS = tested on: SF-539 CNS
SK-MEL-2 melanoma = tested on: SK-MEL-2 melanoma
SK-MEL-5 melanoma = tested on: SK-MEL-5 melanoma
SK-OV-3 ovarian = tested on: SK-OV-3 ovarian
SN12C renal = tested on: SN12C renal
SNB-19 CNS = tested on: SNB-19 CNS
SNB-75 CNS = tested on: SNB-75 CNS
SR leukemia = tested on: SR leukemia
SW-620 colon = tested on: SW-620 colon
TK-10 renal = tested on: TK-10 renal
U251 CNS = tested on: U251 CNS
UACC-257 melanoma = tested on: UACC-257 melanoma
UACC-62 melanoma = tested on: UACC-62 melanoma
UO-31 renal = tested on: UO-31 renal

In the case of `COc1ccc2c(c1)N(CCO)C1=C(C(=O)OC1)C2c1cc(OC)c(OC)c(OC)c1` (configuration not stated), the GI50 (786-0 renal) is reported as 67.9 nM, the TGI (786-0 renal) is reported as over 50000 nM and the GI50 (A498 renal) is reported as 14.7 nM. The TGI (A498 renal) was 61.6 nM, the GI50 (A549 NSCLC) was 26.6 nM and the TGI (A549 NSCLC) was over 50000 nM. It also gave a GI50 (ACHN renal) of 54.9 nM, a TGI (ACHN renal) of over 50000 nM and a GI50 (BT-549 breast) of 91.9 nM. The TGI (BT-549 breast) was over 50000 nM, the GI50 (CAKI-1 renal) was 85.2 nM and the TGI (CAKI-1 renal) was over 50000 nM. For the same molecule, the GI50 (CCRF-CEM leukemia) was 23.1 nM, the TGI (CCRF-CEM leukemia) was over 50000 nM and the GI50 (COLO 205 colon) was 15 nM. The TGI (COLO 205 colon) was 38 nM, the GI50 (DU-145 prostate) was 26.1 nM and the TGI (DU-145 prostate) was 188 nM. The GI50 (HCC-2998 colon) was 63.9 nM, the TGI (HCC-2998 colon) was over 50000 nM and the GI50 (HCT-116 colon) was 17.4 nM. The GI50 (HCT-15 colon) was 62.2 nM, the TGI (HCT-15 colon) was over 50000 nM and the GI50 (HL-60(TB) leukemia) was 15 nM. The GI50 (HOP-62 NSCLC) was 26.5 nM, the TGI (HOP-62 NSCLC) was over 50000 nM and the GI50 (HOP-92 NSCLC) was 86.1 nM. For the same molecule, the TGI (HOP-92 NSCLC) was over 50000 nM, the GI50 (HS 578T breast) was 27.9 nM and the TGI (HS 578T breast) was over 50000 nM. It also gave a GI50 (HT29 colon) of 14.1 nM, a TGI (HT29 colon) of 38.9 nM and a GI50 (IGROV1 ovarian) of 36.2 nM. It also gave a TGI (IGROV1 ovarian) of over 50000 nM, a GI50 (K-562 leukemia) of 19.6 nM and a TGI (K-562 leukemia) of over 50000 nM. The GI50 (KM12 colon) was 17.8 nM, the GI50 (LOX IMVI melanoma) was 25.8 nM and the TGI (LOX IMVI melanoma) was over 50000 nM. The GI50 (M14 melanoma) was 21.3 nM, the TGI (M14 melanoma) was over 50000 nM and the GI50 (MALME-3M melanoma) was 28.7 nM. It also gave a TGI (MALME-3M melanoma) of over 50000 nM, a GI50 (MCF7 breast) of 19.5 nM and a TGI (MCF7 breast) of over 50000 nM. It also gave a GI50 (MDA-MB-231 breast) of 55 nM, a TGI (MDA-MB-231 breast) of 246 nM and a GI50 (MDA-MB-435) of under 10.8 nM. The TGI (MDA-MB-435) was 27.2 nM, the GI50 (MOLT-4 leukemia) was 93.8 nM and the TGI (MOLT-4 leukemia) was over 50000 nM. The GI50 (NCI-H226 lung) was 22.8 nM, the TGI (NCI-H226 lung) was over 50000 nM and the GI50 (NCI-H23 lung) was 28.1 nM. For the same molecule, the TGI (NCI-H23 lung) was over 50000 nM, the GI50 (NCI-H460 lung) was 19.6 nM and the TGI (NCI-H460 lung) was over 50000 nM. For the same molecule, the GI50 (NCI-H522 lung) was 10.9 nM, the TGI (NCI-H522 lung) was 28.6 nM and the GI50 (NCI/ADR-RES ovarian) was 78.7 nM. For the same molecule, the TGI (NCI/ADR-RES ovarian) was 2700 nM, the GI50 (OVCAR-3 ovarian) was 13.3 nM and the TGI (OVCAR-3 ovarian) was 32.2 nM. The GI50 (OVCAR-4 ovarian) was 31 nM, the TGI (OVCAR-4 ovarian) was over 50000 nM and the GI50 (OVCAR-5 ovarian) was 61.4 nM. For the same molecule, the TGI (OVCAR-5 ovarian) was over 50000 nM, the GI50 (OVCAR-8 ovarian) was 19.9 nM and the TGI (OVCAR-8 ovarian) was 181 nM. The GI50 (PC-3 prostate) was 24.7 nM, the TGI (PC-3 prostate) was over 50000 nM and the GI50 (RPMI-8226 leukemia) was 28.7 nM. For the same molecule, the TGI (RPMI-8226 leukemia) was over 50000 nM, the GI50 (RXF 393 renal) was 12.8 nM and the TGI (RXF 393 renal) was over 50000 nM. For the same molecule, the GI50 (SF-268 CNS) was 33 nM, the TGI (SF-268 CNS) was over 50000 nM and the GI50 (SF-295 CNS) was 14 nM. It also gave a TGI (SF-295 CNS) of over 50000 nM, a GI50 (SF-539 CNS) of 17.6 nM and a TGI (SF-539 CNS) of over 50000 nM. The GI50 (SK-MEL-2 melanoma) was 26.7 nM, the TGI (SK-MEL-2 melanoma) was 18300 nM and the GI50 (SK-MEL-5 melanoma) was 17.1 nM. For the same molecule, the TGI (SK-MEL-5 melanoma) was 71.4 nM, the GI50 (SK-OV-3 ovarian) was 23.1 nM and the TGI (SK-OV-3 ovarian) was over 50000 nM. The GI50 (SN12C renal) was 60.9 nM, the TGI (SN12C renal) was over 50000 nM and the GI50 (SNB-19 CNS) was 42.9 nM. The TGI (SNB-19 CNS) was over 50000 nM, the GI50 (SNB-75 CNS) was 19.8 nM and the TGI (SNB-75 CNS) was over 50000 nM. It also gave a GI50 (SR leukemia) of 25.2 nM, a TGI (SR leukemia) of over 50000 nM and a GI50 (SW-620 colon) of 19.6 nM. It also gave a TGI (SW-620 colon) of over 50000 nM, a GI50 (TK-10 renal) of 26.4 nM and a TGI (TK-10 renal) of over 50000 nM. The GI50 (U251 CNS) was 16.5 nM, the TGI (U251 CNS) was over 50000 nM and the GI50 (UACC-257 melanoma) was 22.6 nM. The TGI (UACC-257 melanoma) was over 50000 nM, the GI50 (UACC-62 melanoma) was 20.8 nM and the TGI (UACC-62 melanoma) was over 50000 nM. It also gave a GI50 (UO-31 renal) of 183 nM and a TGI (UO-31 renal) of over 50000 nM.
